Values of other authors as cited in US20140187513A1, “METHOD OF IMPROVING SKILLS WITH A COMPOSITION COMPRISING NON-DIGESTIBLE SACCHARIDE” (priority 2007, published 2014).

Conditions: oral, autistic children, pilot study

## CN[C@H](CC(C)C)C(=O)N[C@H]1C(=O)N[C@@H](CC(N)=O)C(=O)N[C@H]2C(=O)N[C@H]3C(=O)N[C@H](C(=O)N[C@H](C(=O)O)c4cc(O)cc(O)c4-c4cc3ccc4O)[C@H](O)c3ccc(c(Cl)c3)Oc3cc2cc(c3O[C@@H]2O[C@H](CO)[C@@H](O)[C@H](O)[C@H]2O[C@H]2C[C@](C)(N)[C@H](O)[C@H](C)O2)Oc2ccc(cc2Cl)[C@H]1O [vancomycin]
  cognitive effect following vancomycin treatment: significant cognitive improvement
